Experimental findings from ChEMBL document CHEMBL1201862, “PubChem BioAssay data set” (2004) are described below.

Some test systems named below: UACC-257; HCT-15; RXF 393; NCI/ADR-RES; A498; SK-MEL-5; SF-268; MDA-MB-435; HOP-92; UO-31; NCI-H522; MOLT-4; SK-OV-3; M14; MDA-MB-231; SF-295; NCI-H460; IGROV-1; HL-60; OVCAR-5.
Assay in all cases: NCI anticancer screen, dose series, 48 h

The structures appear in SMILES notation.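 Growth conditions: 96-well plates. Treatment: test compound, 48 hours, 5 concentrations. Analysis: linear interpolation between bracketing concentrations; unreached endpoints set to highest concentration. GI50: concentration for 50% inhibition of growth.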 Calls of active or inactive are those of the source. No stated cut-off is given here; in the data, active = GI50 up to about 1.1 µM and inactive = higher.

Take `Cc1nc(O)nc2nc3cc(Cl)cc(Cl)c3c(NC(C)(CO)CO)c12`: the GI50 in the experiment on UACC-257 was > 100 µM (inactive); in the experiment with HCT-15, above 100 µM; in the experiment with RXF 393 it was 27.8 µM (inactive); with NCI/ADR-RES, > 100 µM (inactive); with A498, 13.6 µM (inactive); in the experiment on SK-MEL-5, > 100 µM (inactive). Moreover, the GI50 in the experiment with SF-268 is 25.7 µM (inactive); in the experiment with MDA-MB-435, > 100 µM (inactive); with HOP-92 it was 16.4 µM (inactive); with UO-31, 91 µM (inactive); with NCI-H522 it was > 100 µM (inactive); with MOLT-4, > 100 µM (inactive). The GI50 in the experiment with SK-OV-3 was 26.8 µM (inactive); in the experiment with M14 it was > 100 µM (inactive); with MDA-MB-231 it was 14.7 µM (inactive); in the experiment with SF-295 it was 30.3 µM (inactive); with NCI-H460, > 100 µM (inactive); in the experiment on IGROV-1, 35.9 µM (inactive).
`CC(=O)N1c2ccccc2C23CCN4CC5=CCOC(O)C(C5CC42)C13` (stereo not given): the GI50 is > 100 µM (inactive) in the experiment on UACC-257; > 100 µM (inactive) with HL-60; above 100 µM in the experiment on HCT-15; > 100 µM (inactive) with NCI/ADR-RES; > 100 µM (inactive) in the experiment on A498; > 100 µM (inactive) in the experiment on SK-MEL-5. Besides, the GI50 in the experiment with SF-268, with MDA-MB-435, in the experiment on HOP-92, with UO-31, in the experiment with NCI-H522 and in the experiment on OVCAR-5 was > 100 µM (inactive) throughout. In addition, the GI50 in the experiment on MOLT-4, with SK-OV-3, in the experiment on M14, in the experiment with MDA-MB-231, in the experiment with SF-295 and with NCI-H460 was > 100 µM (inactive) in each case. In the experiment on IGROV-1, the GI50 is > 100 µM (inactive).
For `CCOC1OC(COC(=O)C(C)(C)C)C(O)CC1n1cc(C)c(=O)[nH]c1=O` (stereo not given), the GI50 in the experiment on UACC-257 is > 100 µM (inactive); with HCT-15, above 100 µM; in the experiment with RXF 393 it was > 100 µM (inactive); in the experiment on NCI/ADR-RES, > 100 µM (inactive); in the experiment on A498, > 100 µM (inactive); with SK-MEL-5 it was > 100 µM (inactive). Moreover, the GI50 with SF-268, in the experiment with MDA-MB-435, in the experiment with HOP-92, in the experiment on UO-31, in the experiment on NCI-H522 and in the experiment with OVCAR-5 was > 100 µM (inactive) each time. Also, the GI50 in the experiment on M14, in the experiment on MDA-MB-231, in the experiment on SF-295, in the experiment with NCI-H460 and in the experiment with IGROV-1 was > 100 µM (inactive) each time.
Turning to `O=C1CNNC(CSc2nc3ccc(I)cc3c(=O)n2Cc2ccccc2)=N1`, the GI50 in the experiment with UACC-257 is 26.4 µM (inactive); in the experiment on HL-60, 2.23 µM (inactive); in the experiment with HCT-15 it was 32 µM; in the experiment with NCI/ADR-RES, 26.8 µM (inactive); with A498, 27.8 µM (inactive); with SK-MEL-5, 15.7 µM (inactive). Moreover, the GI50 in the experiment on SF-268 was 24.7 µM (inactive); in the experiment on MDA-MB-435 it was 32.6 µM (inactive); with HOP-92, 22.7 µM (inactive); in the experiment on UO-31, 1.24 µM (inactive); in the experiment on NCI-H522, 23 µM (inactive); in the experiment with OVCAR-5 it was 41.2 µM (inactive). Also, the GI50 is 31.9 µM (inactive) with MOLT-4; 33.3 µM (inactive) in the experiment with SK-OV-3; 36.1 µM (inactive) in the experiment on M14; 14.5 µM (inactive) in the experiment on MDA-MB-231; 20.4 µM (inactive) in the experiment with SF-295; 30.9 µM (inactive) in the experiment with NCI-H460. In addition, the GI50 in the experiment with IGROV-1 was 18 µM (inactive).
Take `CCN(CC)CCNC(=O)c1cc2cc(NC(=O)c3cc4cc([N+](=O)[O-])ccc4[nH]3)ccc2[nH]1`: the GI50 with UACC-257 was 29.4 µM (inactive); in the experiment on HCT-15, above 100 µM; in the experiment with RXF 393, > 43.9 µM (inactive); in the experiment on NCI/ADR-RES it was > 100 µM (inactive); in the experiment with A498, 27 µM (inactive); in the experiment on SK-MEL-5, 3.85 µM (inactive). Besides, the GI50 was 13.6 µM (inactive) in the experiment on SF-268; 37.5 µM (inactive) with MDA-MB-435; 11 µM (inactive) in the experiment with HOP-92; > 40.5 µM (inactive) in the experiment with UO-31; 3.09 µM (inactive) with NCI-H522; 69.7 µM (inactive) in the experiment on OVCAR-5. In addition, the GI50 was 13 µM (inactive) in the experiment with MOLT-4; 25.9 µM (inactive) in the experiment on SK-OV-3; 57.8 µM (inactive) in the experiment with M14; 3.83 µM (inactive) with MDA-MB-231; 27.6 µM (inactive) in the experiment on SF-295; 2.92 µM (inactive) in the experiment on NCI-H460. Besides, the GI50 in the experiment on IGROV-1 was 18.1 µM (inactive).
On to `CC(CC(C)[C@H]1CCC2[C@H]3C(CC(=O)[C@@]21C)[C@@]1(C)CCC(O)C[C@H]1C[C@@H]3O)C(=O)O` (stereo not given in full), for which the GI50 with UACC-257 was > 100 µM (inactive); in the experiment with HL-60, 46.8 µM (inactive); in the experiment on HCT-15 it was 77.3 µM; in the experiment with RXF 393 it was > 100 µM (inactive); with NCI/ADR-RES it was > 100 µM (inactive); in the experiment on A498, > 100 µM (inactive). In addition, the GI50 with SF-268 is > 100 µM (inactive); with MDA-MB-435, > 100 µM (inactive); in the experiment with HOP-92, > 100 µM (inactive); with UO-31, 58.9 µM (inactive); with NCI-H522, > 100 µM (inactive); in the experiment on OVCAR-5 it was > 100 µM (inactive). Besides, the GI50 with MOLT-4 is 46.2 µM (inactive); with M14, > 100 µM (inactive); with MDA-MB-231, > 100 µM (inactive); with NCI-H460, 61.8 µM (inactive); in the experiment with IGROV-1, > 100 µM (inactive).
As for `C=C1C(=O)OC2CC3(C)CCCC(C)C3=CC12` (stereo not given), the GI50 with UACC-257 is 5.38 µM (inactive); in the experiment on HL-60 it was 0.469 µM (active); with HCT-15, 2.1 µM; in the experiment with NCI/ADR-RES it was 17.6 µM (inactive); with A498, 3.72 µM (inactive); in the experiment on SK-MEL-5 it was 1.55 µM (inactive). Moreover, the GI50 in the experiment on SF-268 is 6.92 µM (inactive); with MDA-MB-435 it was 2.94 µM (inactive); in the experiment on HOP-92, 2.64 µM (inactive); in the experiment with UO-31 it was 3.18 µM (inactive); with NCI-H522, 1.51 µM (inactive); in the experiment with OVCAR-5, 11.2 µM (inactive). For the same compound, the GI50 in the experiment with MOLT-4 was 2.56 µM (inactive); with SK-OV-3 it was 20.7 µM (inactive); in the experiment with M14, 3.56 µM (inactive); in the experiment on MDA-MB-231, 12.1 µM (inactive); in the experiment with SF-295 it was 13.1 µM (inactive); with NCI-H460, 3.03 µM (inactive). In the experiment with IGROV-1, the GI50 was 10.1 µM (inactive).
In the case of `OC(CCN1CCCCC1)(c1ccccc1)c1ccccc1` [PRIDINOL], the GI50 is above 100 µM in the experiment with HCT-15; > 100 µM (inactive) with RXF 393; > 100 µM (inactive) with NCI/ADR-RES; > 100 µM (inactive) with A498; 82.8 µM (inactive) with SK-MEL-5; > 100 µM (inactive) in the experiment on SF-268. For the same compound, the GI50 in the experiment with MDA-MB-435 was 82.8 µM (inactive); with HOP-92, 32.4 µM (inactive); in the experiment with UO-31 it was 55.1 µM (inactive); with NCI-H522 it was > 100 µM (inactive); in the experiment on OVCAR-5, > 100 µM (inactive); in the experiment on MOLT-4, > 100 µM (inactive). Besides, the GI50 with SK-OV-3, in the experiment on M14, in the experiment with MDA-MB-231, in the experiment on SF-295 and with IGROV-1 was > 100 µM (inactive) in each case.
